Laboratory results reported in PMC13430218 (Clinical Cancer Research, 2026).

Experiment: Plasma pharmacokinetics of rogocekib, LC-MS/MS, noncompartmental
Format: in vivo, human
Protocol: For other patients in the expansion cohort, peripheral blood samples were collected before and after the dose at 2 and 6 hours on day 1 of cycle 1, and before dose of day 1 in cycles 2 and 4.
Descriptive statistics such as medians, standard deviations, and ranges were calculated. The Kaplan–Meier method was utilized for OS and PFS analysis. PK/PD parameters were assessed using a noncompartmental approach. Exploratory biomarkers were assessed through descriptive statistics.

Tmax, median (min, max) (Cohort A 10 mg twice weekly, n = 1, cycle 1 day 1, oral): 2 (2, 2) hours
AUC0–24 hours, geometric mean (%CV) (Cohort A 140 mg twice weekly, n = 6, cycle 1 day 1, oral): 5,823.618 (22.2) hours·ng/mL
SMILES: COc1ncnn2ccc(-c3cnc4nc(C)n(Cc5nnc([C@@H](C)F)o5)c4c3)c12 [rogocekib, Rogocekib]
